As a reminder, the EC50 is the concentration needed to bring the measured effect to its halfway point.

For assay [1], the system named is Tau phosphorylation at Ser396 (pSer396), SH-SY5Y cells. Kind of assay: Tau phosphorylation at Ser396 (pSer396) in SH-SY5Y cells, ELISA/western blot.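 Note: cell lysates probed for reduced Tau pSer396 via ELISA (colorimetric) or western blot (chemiluminescence), both with one shared pSer396 antibody, EC50 for lowering phosphorylation.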 Type of assay: cell-based, human. The conditions noted are these: Homo sapiens; SH-SY5Y cells, overnight (16-18 h); read-out: pSer396 Tau EC50.
For assay [2], the system named is SW480 colon carcinoma cells. Nature of the assay: Cell viability assay (CellTiter-Glo) in SW480 cells.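 For all read-outs here: SW480 cells stably carrying an Sp5-luciferase TCF/LEF reporter, luminescent ATP signal as viability measure, DMSO-treated cells as control.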 The assay is classed as cell-based, human. The conditions noted are these: Homo sapiens; for EC50: 96 h, cell viability, SW480 cells, four days, CellTiter-Glo; for inhibition at 10 µM: SW480, read-out: percent inhibition at 10 μM. For orientation: ATP-based viability assays read luminescence as a measure of living cells.

Assay [3] addresses GSK3β kinase (Homo sapiens (Human), UniProt P49841). Nature of the assay: GSK3β kinase assay (Ser/Thr 09 peptide Z-lyte, FRET).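 Note: Coumarin/fluorescein emission ratio converted to percent phosphorylation against unphosphorylated (0%) and phosphorylated (100%) controls, 1 h compound incubation at room temperature, 11-point threefold dilutions from 10 µM, run in duplicate.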 Type of assay: biochemical. The conditions noted are these: method text calls the value IC50.
Assay [4] deals with DYRK1A kinase (Homo sapiens (Human), UniProt Q13627). Kind of assay: DYRK1A kinase assay (Ser/Thr 18 peptide Z-lyte, FRET).
Method: Each compound was dissolved in DMSO as a 10 mM stock and used to prepare compound source plates.
This is a non-radioactive assay using fluorescence resonance energy transfer (FRET) between coumarin and fluorescein to detect kinase activity which is represented as a ratio of coumarin emission/fluorescein emission.
The mixture was allowed to incubate with the representative compounds for one hour at room temperature. All reactions were performed in duplicate. Unphosphorylated (“0% Control”) and phosphorylated (“100% control”) forms of Ser/Thr 18 served as control reactions. Additionally, an 11-point dose-response curve of Staurosporine (1 uM top) was run to serve as a positive compound control.
After incubation, Development Reagent A was diluted in Development Buffer then added to the reaction and allowed to further incubate for one hour at room temperature.
The percent phosphorylation was then calculated using the following formula: [1−((Em ratio×F100%)−C100%)/((C0%−C100%)+(Em ratio×(F100%−F0%)))]. Dose-response curves were generated and inhibitory concentration (IC50) values were calculated using non-linear regression curve fit in the Dotmatics' Studies Software (Bishops Stortford, UK).
The test system of assay [5] is LL29 cells (primary human fibroblasts derived from IPF patients), α-smooth muscle actin. Kind of assay: Inhibition of fibrotic process: αSMA in TGF-β1-treated primary human fibroblasts from IPF patients (LL29 cells). As to conditions: Homo sapiens, Fibroblast; for EC50: 96 h, % αSMA-positive LL29 cells, TGF-β1 20 ng/mL, 4 days; for inhibition at 10 µM: read-out: percent inhibition at 10 μM. Type of assay: cell-based. An outline of the steps: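 Read-out is the percentage of αSMA-positive cells by high-content imaging, excluding SYTOX green-positive dead/apoptotic cells, normalized to TGF-β1-only wells on the same plate. LL29 cells were exposed for 4 days at 37 °C to 20 ng/mL TGF-β1 plus 11-point, 2-fold compound dilutions in 0.1% DMSO.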

Assay [6] concerns Wnt activity (Sp5-Luc reporter in SW480 colon carcinoma cells). Kind of assay: Wnt activity screening assay (Sp5-Luc reporter gene assay). As to conditions: Homo sapiens; for EC50: Sp5-Luc reporter, SW480 cells, 36 to 48 hours; for inhibition at 10 µM: SW480, read-out: percent inhibition at 10 μM. Type of assay: cell-based, human. An outline of the steps:
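Compounds at 10 points (1:3 steps, top 10 μM, 0.1% DMSO final) were incubated 36 to 48 h at 37° C with stable Sp5-Luc SW480 reporter cells in 1% FBS medium. Luciferase luminescence was then read and expressed relative to DMSO-only cells. Four-parameter variable-slope fitting yielded EC50 values.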
Background: A reporter such as luciferase makes a cellular process visible.

For assay [7], the system named is IL-6. Nature of the assay: IL-6 inhibition in LPS-stimulated human peripheral blood mononuclear cells (HTRF). Type of assay: cell-based. As to conditions: Homo sapiens, PBMC; for EC50: IL-6, LPS-stimulated huPBMCs, HTRF; for inhibition at 10 µM: read-out: percent value in parentheses below EC50 >10. In a few lines:
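EC50 from a 4-parameter fit of DMSO-normalized HTRF (665/620 nm) IL-6 signal, duplicates. Compound was added to fresh human PBMCs in 1% FBS RPMI for 2 h (top 10 μM, 3-fold, 0.25% DMSO) before 22 h stimulation with LPS at 50 ng/mL, 37 °C.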
(TR-FRET usually uses a lanthanide donor and a delayed reading to cut background.)

The mark [8] stands for this setting: DYRK1A kinase, method text calls the value IC50.

Like-named read-outs stand apart in the source and are kept apart here.

Sequence of GSK3β kinase (P49841 whole entry): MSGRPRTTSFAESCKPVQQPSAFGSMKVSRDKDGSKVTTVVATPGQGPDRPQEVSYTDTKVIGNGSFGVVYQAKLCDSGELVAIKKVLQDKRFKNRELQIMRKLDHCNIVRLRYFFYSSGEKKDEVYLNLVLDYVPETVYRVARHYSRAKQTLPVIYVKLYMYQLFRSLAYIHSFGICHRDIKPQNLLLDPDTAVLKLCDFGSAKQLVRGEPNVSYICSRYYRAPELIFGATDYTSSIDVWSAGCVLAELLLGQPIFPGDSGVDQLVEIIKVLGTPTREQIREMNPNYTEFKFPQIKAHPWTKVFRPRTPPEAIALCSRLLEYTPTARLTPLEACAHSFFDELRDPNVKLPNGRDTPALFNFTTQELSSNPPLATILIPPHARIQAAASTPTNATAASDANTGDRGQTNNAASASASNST

As for `[2H]C([2H])(C(=O)Nc1cc2cc(-c3cnc(C)n3C)ccc2cn1)c1ccc(F)cc1` [Compound 92, N-(6-(1,2-Dimethyl-1H-imidazol-5-yl)isoquinolin-3-yl)-2-(4-fluorophenyl) acetamide-2,2-d2], the concentration for a half-maximal effect (EC50) was 769 nM in assay [1]; 4080 nM in assay [2]; 66 nM in assay [3]; 10 nM in assay [4]; 2710 nM in assay [5]; 3140 nM in assay [6]. This compound also came in with a concentration for a half-maximal effect (EC50) in assay [7] of 3180 nM.
Regarding `[2H]c1c(NC(=O)C2CCN(C)CC2)ncc2ccc(-c3cnn(C)c3)cc12` [Compound 66, 1-Methyl-N-(6-(1-methyl-1H-pyrazol-4-yl)isoquinolin-3-yl-4-d)piperidine-4-carboxamide], the concentration giving a half-maximal response (EC50) in assay [1] is 168 nM; in assay [2], 1220 nM; in assay [3], 53 nM; in assay [4], 3 nM; in assay [5], 160 nM; in assay [6], 1190 nM. This compound gave a concentration giving a half-maximal response (EC50) in assay [7] of 997 nM.
With `Cc1nnc(-c2ccc3cnc(NC(=O)N4CC[C@@H](NC(C)C)[C@H](F)C4)cc3c2)s1` [Compound 130, (3R,4R)-3-Fluoro-4-(isopropylamino)-N-(6-(5-methyl-1,3,4-thiadiazol-2-yl)isoquinolin-3-yl)piperidine-1-carboxamide], the concentration for a half-maximal effect (EC50) in assay [1] turned out to be 1500 nM; in assay [2], 4210 nM; in assay [3] it was 142 nM; in assay [4] (setting [8]), 37 nM; in assay [5], 3300 nM; in assay [6] it was 4040 nM. The compound further yielded an EC50 in assay [7] of over 10000 nM. Besides, in assay [7], the inhibition at 10 µM was 12.2%.
On to `[2H]C1([2H])OC([2H])([2H])C([2H])([2H])N(CC(=O)Nc2cc3cc(-c4cnc(C)s4)ccc3cn2)C1([2H])[2H]` [Compound 41, N-(6-(2-Methylthiazol-5-yl)isoquinolin-3-yl)-2-(morpholino-d8)acetamide], for which the EC50 in assay [1] was 869 nM; in assay [2], over 10000 nM; in assay [3], 203 nM; in assay [4], 27 nM; in assay [5] it was 1220 nM; in assay [6], over 10000 nM. In addition, in assay [7], the EC50 is over 10000 nM. Further, the inhibition at 10 µM in assay [2] stood at 10.7%; in assay [6], 29.7%; in assay [7] it was 9.4%.
For `[2H]c1c(NC(=O)CN2CCOCC2)ncc2ccc(-c3cnc(C)o3)cc12` [Compound 137, N-(6-(2-Methyloxazol-5-yl)isoquinolin-3-yl-4-d)-2-morpholinoacetamide], the half-maximal effective concentration (EC50) in assay [1] is 573 nM; in assay [2], over 10000 nM; in assay [3], 68 nM; in assay [4], 18 nM; in assay [5] it was 3130 nM; in assay [6], over 10000 nM. Further, the concentration for a half-maximal effect (EC50) in assay [7] was determined as 2280 nM. Also, the inhibition at 10 µM was 39% in assay [2] and 38.5% in assay [6].
With `C[C@H]1CN(C)CCN1C(=O)Nc1cc2cc(-c3cnn(C)c3)ccc2cn1` [Compound 42, (S)-2,4-Dimethyl-N-(6-(1-methyl-1H-pyrazol-4-yl)isoquinolin-3-yl) piperazine-1-carboxamide], the EC50 in assay [1] was over 10000 nM; in assay [2], over 10000 nM; in assay [3], 4670 nM; in assay [4] (setting [8]), 12 nM; in assay [5], over 10000 nM; in assay [6] it was over 10000 nM. In assay [7], the EC50 was over 10000 nM. The inhibition at 10 µM in assay [2] worked out at 26.5%; in assay [5], 6.4%; in assay [6], 25.5%; in assay [7], 6.4%.
Consider `[2H]c1c([2H])c(C([2H])([2H])[2H])c([2H])c([2H])c1C(=O)Nc1cc2cc(-c3cncn3C)ccc2cn1` [Compound 86, 4-(Methyl-d3)-N-(6-(1-methyl-1H-imidazol-5-yl)isoquinolin-3-yl) benzamide-2,3,5,6-d4], for which the EC50 in assay [1] came out at 3040 nM; in assay [2], 515 nM; in assay [3], 1740 nM; in assay [4] it was 2 nM; in assay [5], 556 nM; in assay [6], 350 nM. The EC50 in assay [7] was determined as 2170 nM.
On to `Cn1cc(-c2cc(F)c3cnc(NC(=O)[C@H]4CC[C@H](N5CCOCC5)CC4)cc3c2)cn1` [Compound 3, trans-N-(8-Fluoro-6-(1-methyl-1H-pyrazol-4-yl)isoquinolin-3-yl)-4-morpholinocyclohexane-1-carboxamide], for which the EC50 amounted to 458 nM in assay [1]; 6670 nM in assay [2]; 131 nM in assay [3]; 4 nM in assay [4] (setting [8]); 153 nM in assay [5]; 1860 nM in assay [6]. The compound further gave an EC50 in assay [7] of 1120 nM.
Consider `Cc1ncc(-c2ccc3cnc(NC(=O)[C@H]4CC[C@H](CN5CCN(C)CC5)CC4)cc3c2)o1` [Compound 70, trans-N-(6-(2-Methyloxazol-5-yl)isoquinolin-3-yl)-4-((4-methylpiperazin-1-yl)methyl)cyclohexane-1-carboxamide], for which the half-maximal effective concentration (EC50) amounted to 307 nM in assay [1]; 1720 nM in assay [2]; 73 nM in assay [3]; 2 nM in assay [4] (setting [8]); 124 nM in assay [5]; 1110 nM in assay [6]. This compound showed a concentration for a half-maximal effect (EC50) in assay [7] of 952 nM.
For `[2H]c1c(NC(=O)C2CCN(C)CC2)ncc2ccc(-c3cnc(C)o3)cc12` [Compound 136, 1-Methyl-N-(6-(2-methyloxazol-5-yl)isoquinolin-3-yl-4-d)piperidine-4-carboxamide], the concentration for a half-maximal effect (EC50) in assay [1] amounted to 309 nM; in assay [2] it was 1120 nM; in assay [3], 80 nM; in assay [4], 6 nM; in assay [5], 418 nM; in assay [6] it was 2110 nM. In assay [7], the concentration for a half-maximal effect (EC50) was 463 nM.
Regarding `COC1CCN(CC(=O)Nc2cc3cc(-c4nnc(C)s4)ccc3cn2)CC1` [Compound 49, 2-(4-Methoxypiperidin-1-yl)-N-(6-(5-methyl-1,3,4-thiadiazol-2-yl)isoquinolin-3-yl)acetamide], the concentration giving a half-maximal response (EC50) in assay [1] is 135 nM; in assay [2], 2900 nM; in assay [3], 6 nM; in assay [4] (setting [8]), 21 nM; in assay [5], 643 nM; in assay [6] it was over 10000 nM. The EC50 in assay [7] was over 10000 nM. Moreover, the inhibition at 10 µM came out at 32.9% in assay [6] and 9% in assay [7].
Regarding `[2H]c1c(NC(=O)C2CCN(C)CC2)ncc2ccc(-c3nnc(C)s3)cc12` [Compound 134, 1-Methyl-N-(6-(5-methyl-1,3,4-thiadiazol-2-yl)isoquinolin-3-yl-4-d) piperidine-4-carboxamide], the EC50 in assay [1] is 93 nM; in assay [2], 2740 nM; in assay [3] it was 19 nM; in assay [4], 6 nM; in assay [5], 579 nM; in assay [6], 593 nM. The 50% effective concentration (EC50) in assay [7] was 7130 nM.
`CNC1CCN(C(=O)Nc2cc3cc(-c4nnc(C)s4)ccc3cn2)CC1` [Compound 30, N-(6-(5-Methyl-1,3,4-thiadiazol-2-yl)isoquinolin-3-yl)-4-(methylamino) piperidine-1-carboxamide]: the EC50 was determined as 453 nM in assay [1]; 6840 nM in assay [2]; 99 nM in assay [3]; 27 nM in assay [4] (setting [8]); 4110 nM in assay [5]; 3310 nM in assay [6]. Further, the EC50 in assay [7] is over 10000 nM. Further, the inhibition at 10 µM in assay [7] came out at 9.3%.
`Cc1nnc(-c2ccc3cnc(NC(=O)N4C[C@H]5C[C@@H]4CN5C)cc3c2)s1` [Compound 176, (1R,4R)-5-Methyl-N-(6-(5-methyl-1,3,4-thiadiazol-2-yl)isoquinolin-3-yl)-2,5-diazabicyclo[2.2.1]heptane-2-carboxamide]: the EC50 is 4000 nM in assay [1]; over 10000 nM in assay [2]; 207 nM in assay [3]; 23 nM in assay [4] (setting [8]); over 10000 nM in assay [5]; 1040 nM in assay [6]. Moreover, the EC50 in assay [7] is over 10000 nM. Moreover, the inhibition at 10 µM in assay [2] came to 8.3%; in assay [5], 8.4%; in assay [7] it was 8.4%.
As for `Cc1ncc(-c2ccc3cnc(NC(=O)N4CCC(N(C)CC(F)F)CC4)cc3c2)o1` [Compound 52, 4-((2,2-Difluoroethyl)(methyl)amino)-N-(6-(2-methyloxazol-5-yl)isoquinolin-3-yl)piperidine-1-carboxamide], the EC50 stood at 1100 nM in assay [1]; 3970 nM in assay [2]; 156 nM in assay [3]; 9 nM in assay [4] (setting [8]); 1730 nM in assay [5]; 923 nM in assay [6]. This compound showed a half-maximal effective concentration (EC50) in assay [7] of 3700 nM.

The values are drawn from US10604514B2, “6-(5-membered heteroaryl)isoquinolin-3-yl carboxamides and preparation and use thereof” (Samumed, LLC, priority 2017, dated 2020).
